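Each compound was tested at five concentrations against cells in 96-well plates for 48 hours. At the TGI there is no net growth.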
Assays:
Assay in all cases: NCI tumour cell line growth inhibition, 48 h
[1] = system: COLO 205 colon
[2] = system: A549 NSCLC
[3] = system: CAKI-1 renal
[4] = system: OVCAR-8 ovarian
[5] = system: NCI-H460 lung
[6] = system: RXF 393 renal
[7] = system: HOP-92 NSCLC
[8] = system: HT29 colon
[9] = system: HCT-15 colon
[10] = system: K-562 leukemia
[11] = system: M19-MEL melanoma
[12] = system: NCI-H23 lung
[13] = system: SF-295 CNS
[14] = system: RXF-631 renal
[15] = system: DMS 114 small cell lung
[16] = system: KM12 colon
[17] = system: OVCAR-5 ovarian
[18] = system: HCT-116 colon
[19] = system: LOX IMVI melanoma
[20] = system: MALME-3M melanoma
[21] = system: SF-268 CNS
[22] = system: UACC-62 melanoma
[23] = system: OVCAR-3 ovarian
[24] = system: HOP-62 NSCLC
[25] = system: UACC-257 melanoma
[26] = system: 786-0 renal
[27] = system: EKVX NSCLC
[28] = system: SNB-19 CNS
[29] = system: SN12C renal
[30] = system: NCI-H522 lung
[31] = system: A498 renal
[32] = system: NCI-H226 lung
[33] = system: SW-620 colon
[34] = system: SR leukemia
[35] = system: RPMI-8226 leukemia
[36] = system: U251 CNS
[37] = system: SK-OV-3 ovarian
[38] = system: SNB-75 CNS
[39] = system: DMS 273 small cell lung
[40] = system: DLD-1 colon
[41] = system: SK-MEL-5 melanoma
[42] = system: M14 melanoma
[43] = system: KM20L2 colon
[44] = system: HL-60(TB) leukemia
[45] = system: MOLT-4 leukemia
[46] = system: OVCAR-4 ovarian
[47] = system: TK-10 renal
[48] = system: CCRF-CEM leukemia
[49] = system: LXFL 529 NSCLC
[50] = system: IGROV1 ovarian
[51] = system: SF-539 CNS
[52] = system: SNB-78 CNS
[53] = system: SK-MEL-28 melanoma
[54] = system: UO-31 renal
[55] = system: SK-MEL-2 melanoma
[56] = system: ACHN renal
[57] = system: HCC-2998 colon

Compound: COc1cc2c(cc1OC)C1C=NC(C(=O)O)(C2)c2ccccc21 (stereo not drawn)
- TGI [1]: > 100 µM
- TGI [2]: > 100 µM
- TGI [3]: > 100 µM
- TGI [4]: > 100 µM
- TGI [5]: > 100 µM
- TGI [6]: > 100 µM
- TGI [7]: > 100 µM
- TGI [8]: > 100 µM
- TGI [9]: > 100 µM
- TGI [10]: > 100 µM
- TGI [11]: > 100 µM
- TGI [12]: > 100 µM
- TGI [13]: > 100 µM
- TGI [14]: > 100 µM
- TGI [15]: > 100 µM
- TGI [16]: > 100 µM
- TGI [17]: > 100 µM
- TGI [18]: > 100 µM
- TGI [19]: > 100 µM
- TGI [20]: > 100 µM
- TGI [21]: > 100 µM
- TGI [22]: > 100 µM
- TGI [23]: > 100 µM
- TGI [24]: > 100 µM
- TGI [25]: > 100 µM
- TGI [26]: > 100 µM
- TGI [27]: > 100 µM
- TGI [28]: > 100 µM
- TGI [29]: > 100 µM
- TGI [30]: > 100 µM
- TGI [31]: > 100 µM
- TGI [32]: > 100 µM
- TGI [33]: > 100 µM
- TGI [34]: > 100 µM
- TGI [35]: > 100 µM
- TGI [36]: > 100 µM
- TGI [37]: > 100 µM
- TGI [38]: > 100 µM
- TGI [39]: > 100 µM
- TGI [40]: > 100 µM
- TGI [41]: > 100 µM
- TGI [42]: > 100 µM
- TGI [43]: > 100 µM
- TGI [44]: > 100 µM
- TGI [45]: > 100 µM
- TGI [46]: > 100 µM
- TGI [47]: > 100 µM
- TGI [48]: > 100 µM
- TGI [49]: > 100 µM
- TGI [50]: > 100 µM
- TGI [51]: > 100 µM
- TGI [52]: > 100 µM

Compound: COc1cc([C@@H]2c3cc4c(cc3[C@@H](NC(=O)c3cccc([N+](=O)[O-])c3)C3COC(=O)[C@@H]32)OCO4)cc(OC)c1O (stereo partly drawn)
- TGI [1]: > 100 µM
- TGI [2]: 1.72 µM
- TGI [3]: 4.31 µM
- TGI [4]: 7.06 µM
- TGI [5]: 1.32 µM
- TGI [6]: 9.97 µM
- TGI [7]: 22.8 µM
- TGI [8]: 11.7 µM
- TGI [9]: 4.31 µM
- TGI [10]: > 100 µM
- TGI [53]: > 43.8 µM
- TGI [11]: > 100 µM
- TGI [12]: 1.11 µM
- TGI [13]: 3.99 µM
- TGI [54]: 12.2 µM
- TGI [14]: 18.8 µM
- TGI [55]: 7.23 µM
- TGI [16]: 10.8 µM
- TGI [17]: 8.54 µM
- TGI [18]: > 34.8 µM
- TGI [19]: 9.41 µM
- TGI [20]: 4.77 µM
- TGI [21]: 10.7 µM
- TGI [22]: 7.54 µM
- TGI [23]: 27.9 µM
- TGI [24]: 0.121 µM
- TGI [25]: > 100 µM
- TGI [26]: 0.833 µM
- TGI [27]: 10.8 µM
- TGI [28]: 14.1 µM
- TGI [29]: 1.49 µM
- TGI [32]: 1.02 µM
- TGI [33]: 24.3 µM
- TGI [35]: > 22.1 µM
- TGI [36]: 1.26 µM
- TGI [38]: 9.55 µM
- TGI [39]: > 100 µM
- TGI [40]: > 67.9 µM
- TGI [41]: 3.65 µM
- TGI [42]: > 19.8 µM
- TGI [56]: 1.62 µM
- TGI [43]: > 57.7 µM
- TGI [57]: 3.17 µM
- TGI [45]: > 100 µM
- TGI [46]: > 89.5 µM
- TGI [47]: 9.94 µM
- TGI [48]: > 100 µM
- TGI [49]: > 100 µM
- TGI [50]: > 37.4 µM
- TGI [51]: 1.33 µM
- TGI [52]: > 100 µM
